In US5459257A, “Sulfated oligoglycoside acylate and antiviral agent containing the same as active ingredient” (priority 1993, dated 1995):
Like-named read-outs stand apart in the source and are kept apart here.

Experiments:
HIV [1] = assay: anti-HIV activity, inhibition of HIV-induced cytopathicity in MT-4 cells (MTT method); assay type: cell-based; conditions: for EC50: HIV-infected MT-4 cells, MOI 0.01, 5 days, 37° C.; for S.I. (CC50/EC50): MT-4 cells, ratio of CC50 to EC50, 7200 min
Experimental: A test compound having various concentrations were placed in a 96-well microtiter plate along with HIV-infected MT-4 cells (2.5×10^4 /well, MOI (multiplicity of infection): 0.01) immediately after infection thereof. In order to ascertain the cytotoxicty of the test compound with respect to MT-4 cells, mock-infected (non-infected) cells were cultured in an identical manner along with the test compound of various concentrations. After incubating for 5 days at 37° C. in a CO2 atmosphere, the number of living cells were determined by using MTT method. The anti-HIV activity was evaluated with the method written by R. Pauwels, et al. (R. Pauwels, et al., J. Virol Methods, 20, 309 to 321 (1988)).
The anti-HIV activity is shown in terms of EC50 (50% effective concentration) that is the concentration of a compound which inhibits 50% of HIV-induced cytopathicity in MT-4 cells, and the cytotoxity is shown in terms of CC50 (cytotoxic concentration) that is the concentration of a compound which reduces 50% of viability of mock-infected MT-4 cells. Selectivity Index (S.I.) is expressed by the ratio of CC50 to EC50 (CC50 /EC50).

MT-4 cells = assay: cytotoxicity in mock-infected MT-4 cells (MTT method); assay type: cell-based; conditions: mock-infected MT-4 cells, 5 days, 37° C.
Experimental: A test compound having various concentrations were placed in a 96-well microtiter plate along with HIV-infected MT-4 cells (2.5×10^4 /well, MOI (multiplicity of infection): 0.01) immediately after infection thereof. In order to ascertain the cytotoxicty of the test compound with respect to MT-4 cells, mock-infected (non-infected) cells were cultured in an identical manner along with the test compound of various concentrations. After incubating for 5 days at 37° C. in a CO2 atmosphere, the number of living cells were determined by using MTT method.
Selectivity Index (S.I.) is expressed by the ratio of CC50 to EC50 (CC50 /EC50).

HIV [2] = assay: anti-HIV activity of serum after intravenous administration to mice; assay type: in vivo; conditions: for reciprocal number of concentration of the compound at 50% cell viability / reciprocal number of concentration of dextran sulfate at 50% cell viability: mouse serum; for reciprocal number of concentration of the compound at 50% cell viability: 32 mg/kg; for detection/duration of activity in serum: mouse, i.v., Compound 6 32 mg/kg up to 12 hours, dextran sulfate 80 mg/kg up to 60 min; for reciprocal number of concentration of dextran sulfate at 50% cell viability: 80 mg/kg
Experimental: The effects of Compound 6 and dextran sulfate in vivo experiment were studied by duration of the activity using mouse.
Compound 6 were dissolved with saline at the concentration of 32 mg/10 ml. Dextran sulfate (Control compound: M.W=8000: Sigma) were dissolved with it at the concentration of 80 mg/10 ml.
(§1) Mouse (Crj:CD-1(ICR)) (supplier: Charles River Japan, Inc.), six weeks old were used for this study.
Four groups (for 1, 4, 6 and 12 hours) of mice (one group: three mice) were used for the in vivo experiments of the Compound 6.
The twelve mice were given an intravenous injection of the compound (in the tail vein; Dose 32 mg/kg).
Three groups (for 20, 40 and 60 minutes) of mice (one group: two mice) were used for dextran sulfate such a method as described in Compound 6 (Dose 80 mg/kg). At decided times after injection, the blood was collected and serum was separated by centrifugation at low speed.
The serum samples were stored at -80° C. until assayed. Each serum sample was diluted with culture medium to evaluate the effective concentration (the maximum concentration was set up to 10%). The method of this anti-HIV activity evaluation was the same one as described in EXAMPLE 49.
(*)Various concentration of the serum solutions (diluted with the medium
and the maximum concentration is 10%) were used for evaluation of the
shown. That is why the higher the reciprocal number, the higher the […]

rabbit blood [3] = assay: effects on blood clotting, whole blood clotting time; conditions: for comparing strength of effects on blood clotting: at the concentration of more than 0.1%; for clotting time: rabbit whole blood
Experimental: (§2) Sodium heparin (Kodama) used as positive control was diluted with saline at the concentration of 120 U/ml.
(§3) Japan White rabbits (supplier: Kitayama Labes), 4 months old, were used for this study.
(§4) Cardiopuncture was performed in a rabbit, and at when blood was started to be flowed into the syringe, the timer was made to start. The whole blood collected was carefully flowed into double glass tubes incubated. After putting the samples calmly for 3 minutes, the first tube was tilted gently every 30 seconds and the current of blood was observed. When blood in the first tube was clotted, the same operation was performed in the second tube. When the blood was clotted in the second tube, the timer was stopped, and this end point was recorded as whole blood clotting time.

rabbit blood [4] = test system: rabbit blood
Experimental: as §2, §3, §4

[5] = in vivo; cited from earlier work
HIV [6] = assay: anti-HIV activity of serum after oral administration to mice; assay type: in vivo; conditions: for reciprocal number of concentration at 50% cell viability: mouse serum
Experimental: The effects of orally administration of Compound 1 in vivo experiment were studied by duration of the activity using mouse.
Compound 1 was dissolved with distilled water at the concentrations of 500 mg/10 ml and 1000 mg/10 ml.
as §1
Three groups (for 1, 2 and 3 hours) of mice (one group: three mice) were used for the in vivo experiments. Nine mice were given an orally administered of Compound 1 at a dose of 500 mg/kg or 1.0 g/kg.
At decided times after administration, the blood was collected and the serum was collected by centrifugation at low speed.
The serum samples were stored at -80° C. until assayed.
Each serum sample was diluted to evaluate the effective concentration with culture medium. The evaluation method was the same as described the section of Anti-HIV activity.

Substance: Sulfated n-dodecyl O-2,4-difluorobenzoyl-β-D-laminaripentaoside [Compound 6]
- EC50 (HIV [1]): 1.8 µg/mL
- S.I. (CC50/EC50) (HIV [1]): > 556
- CC50 (MT-4 cells): > 1,000 μg/ml
- reciprocal number of concentration of the compound at 50% cell viability (HIV [2]; 1 hour after i.v. injection): 145
- reciprocal number of concentration of the compound at 50% cell viability (HIV [2]; 4 hours after i.v. injection): 94
- reciprocal number of concentration of the compound at 50% cell viability (HIV [2]; 6 hours after i.v. injection): 60
- reciprocal number of concentration of the compound at 50% cell viability (HIV [2]; 12 hours after i.v. injection): 48
- detection/duration of activity in serum (HIV [2]): detected at a high concentration
- comparing strength of effects on blood clotting (rabbit blood [3]): dextran sulfate>1>6
- clotting time (rabbit blood [3]; 0.01%): 7.4 ± 0.6 min
- clotting time (rabbit blood [3]; 0.1%): 7.4 ± 0.6 min
- clotting time (rabbit blood [3]; 1.0%): 21.1 ± 1.7 min

Substance: dextran sulfate
- reciprocal number of concentration of dextran sulfate at 50% cell viability (HIV [2]; 20 min after i.v. injection): < 10
- reciprocal number of concentration of dextran sulfate at 50% cell viability (HIV [2]; 40 min after i.v. injection): < 10
- reciprocal number of concentration of dextran sulfate at 50% cell viability (HIV [2]; 60 min after i.v. injection): < 10
- detection/duration of activity in serum (HIV [2]): could not be detected
- comparing strength of effects on blood clotting (rabbit blood [4]): dextran sulfate>1>6
- absorption after oral administration [5]: poorly absorbed

Substance: Sulfated n-dodecyl O-benzoyl-β-D-laminaripentaoside [Compound 1]
- EC50 (HIV [1]): 3.2 µg/mL
- S.I. (CC50/EC50) (HIV [1]): 254
- CC50 (MT-4 cells; 7200 min): 814 µg/mL
- reciprocal number of concentration at 50% cell viability (HIV [6]; 1 hour after oral administration, 500 mg/kg): 15.9
- reciprocal number of concentration at 50% cell viability (HIV [6]; 1 hour after oral administration, 1.0 g/kg): 55.6
- reciprocal number of concentration at 50% cell viability (HIV [6]; 2 hours after oral administration, 500 mg/kg): 19.2
- reciprocal number of concentration at 50% cell viability (HIV [6]; 2 hours after oral administration, 1.0 g/kg): 83.8
- reciprocal number of concentration at 50% cell viability (HIV [6]; 3 hours after oral administration, 500 mg/kg): 26.7
- reciprocal number of concentration at 50% cell viability (HIV [6]; 3 hours after oral administration, 1.0 g/kg): 54.1
- detection of activity in serum after oral administration (HIV [6]; mouse, oral, 500 mg/kg or 1.0 g/kg): detected at a high concentration
- comparing strength of effects on blood clotting (rabbit blood [3]): dextran sulfate>1>6
- clotting time (rabbit blood [3]; 0.01%): 8.0 ± 0.5 min
- clotting time (rabbit blood [3]; 0.1%): 8.3 ± 0.7 min
- clotting time (rabbit blood [3]; 1.0%): 27.3 ± 3.0 min
